Paper PMC5290327, “SC83288 is a clinical development candidate for the treatment of severe malaria” (Nature Communications, 2017)

Key:
Assay in all cases: KINOMEscan
Type in all cases: binding
Settings in all cases: read-out: Remaining enzyme activity
[1] = biological target: T1, BIKE (Homo sapiens, UniProt Q9NSY1)
T1 construct: purchased Ambit (DiscoverX) KINOMEscan; Cerep
How it was run: (§1)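 qPCR of a DNA tag reports how much kinase stays bound to ligand-coated beads in the presence of 10 μM SC81458, diluted from a DMSO stock. Kinase sources were T7 phage lysates from E. coli or HEK-293-expressed protein tagged with DNA.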

[2] = biological target: T2, BMPR1b (Homo sapiens, UniProt O00238)
T2 construct: purchased Ambit (DiscoverX) KINOMEscan; Cerep
How it was run: as §1

[3] = biological target: T3, FGFR1 (Homo sapiens, UniProt P11362)
T3 construct: purchased Ambit (DiscoverX) KINOMEscan; Cerep
How it was run: as §1

[4] = biological target: T4, LZK (Homo sapiens, UniProt O43283)
T4 construct: purchased Ambit (DiscoverX) KINOMEscan; Cerep
How it was run: as §1

[5] = biological target: T5, TRKa (Homo sapiens, UniProt P04629)
T5 construct: purchased Ambit (DiscoverX) KINOMEscan; Cerep
How it was run: as §1

[6] = biological target: T6, JAK2(JH1domain-catalytic) (Homo sapiens, UniProt O60674)
T6 construct: JAK2(JH1domain-catalytic); purchased Ambit (DiscoverX) KINOMEscan; Cerep
How it was run: as §1

[7] = biological target: T7, RPS6KA2(Kin.Dom.1-N-term) (Homo sapiens, UniProt Q15349)
T7 construct: RPS6KA2(Kin.Dom.1-N-term); purchased Ambit (DiscoverX) KINOMEscan; Cerep
How it was run: as §1

[8] = biological target: T8, GRK4 (Homo sapiens, UniProt P32298)
T8 construct: purchased Ambit (DiscoverX) KINOMEscan; Cerep
How it was run: as §1

[9] = biological target: T9, CDKL2 (Homo sapiens, UniProt Q92772)
T9 construct: purchased Ambit (DiscoverX) KINOMEscan; Cerep
How it was run: as §1

[10] = biological target: T10, AKT1 (Homo sapiens, UniProt P31749)
T10 construct: purchased Ambit (DiscoverX) KINOMEscan; Cerep
How it was run: as §1

[11] = biological target: T11, EGFR(L861Q) (Homo sapiens, UniProt P00533, L861Q)
T11 construct: purchased Ambit (DiscoverX) KINOMEscan; Cerep
How it was run: as §1

[12] = biological target: T12, STK35 (Homo sapiens, UniProt Q8TDR2)
T12 construct: purchased Ambit (DiscoverX) KINOMEscan; Cerep
How it was run: as §1

[13] = biological target: T13, TYK2(JHdomain-catalytic) (Homo sapiens, UniProt P29597)
T13 construct: TYK2(JHdomain-catalytic); purchased Ambit (DiscoverX) KINOMEscan; Cerep
How it was run: as §1

[14] = biological target: T14, NIM1 (Homo sapiens, UniProt Q8IY84)
T14 construct: purchased Ambit (DiscoverX) KINOMEscan; Cerep
How it was run: as §1

[15] = biological target: T15, PHKG1 (Homo sapiens, UniProt Q16816)
T15 construct: purchased Ambit (DiscoverX) KINOMEscan; Cerep
How it was run: as §1

[16] = biological target: T16, HCK (Homo sapiens, UniProt P08631)
T16 construct: purchased Ambit (DiscoverX) KINOMEscan; Cerep
How it was run: as §1

[17] = biological target: T17, KIT(V559D, T670I) (Homo sapiens, UniProt P10721, T670I/V559D)
T17 construct: purchased Ambit (DiscoverX) KINOMEscan; Cerep
How it was run: as §1

[18] = biological target: T18, EGFR(L747-E752del, P753S) (Homo sapiens, UniProt P00533, DEL747-752/P753S)
T18 construct: purchased Ambit (DiscoverX) KINOMEscan; Cerep
How it was run: as §1

[19] = biological target: T19, MAP3K3 (Homo sapiens, UniProt Q99759)
T19 construct: purchased Ambit (DiscoverX) KINOMEscan; Cerep
How it was run: as §1

[20] = biological target: T20, MKNK2 (Homo sapiens, UniProt Q9HBH9)
T20 construct: purchased Ambit (DiscoverX) KINOMEscan; Cerep
How it was run: as §1

[21] = biological target: T21, PIK3CA(C420R) (Homo sapiens, UniProt P42336, C420R)
T21 construct: purchased Ambit (DiscoverX) KINOMEscan; Cerep
How it was run: as §1

[22] = biological target: T22, ICK (Homo sapiens, UniProt Q9UPZ9)
T22 construct: purchased Ambit (DiscoverX) KINOMEscan; Cerep
How it was run: as §1

[23] = biological target: T23, RIOK1 (Homo sapiens, UniProt Q9BRS2)
T23 construct: purchased Ambit (DiscoverX) KINOMEscan; Cerep
How it was run: as §1

[24] = biological target: T24, AURKC (Homo sapiens, UniProt Q9UQB9)
T24 construct: purchased Ambit (DiscoverX) KINOMEscan; Cerep
How it was run: as §1

[25] = biological target: T25, CHEK2 (Homo sapiens, UniProt O96017)
T25 construct: purchased Ambit (DiscoverX) KINOMEscan; Cerep
How it was run: as §1

[26] = biological target: T26, MAP4K3 (Homo sapiens, UniProt Q8IVH8)
T26 construct: purchased Ambit (DiscoverX) KINOMEscan; Cerep
How it was run: as §1

[27] = biological target: T27, HPK1 (Homo sapiens, UniProt Q92918)
T27 construct: purchased Ambit (DiscoverX) KINOMEscan; Cerep
How it was run: as §1

[28] = biological target: T28, AURKA (Homo sapiens, UniProt O14965)
T28 construct: purchased Ambit (DiscoverX) KINOMEscan; Cerep
How it was run: as §1

[29] = biological target: T29, MEK4 (Homo sapiens, UniProt P45985)
T29 construct: purchased Ambit (DiscoverX) KINOMEscan; Cerep
How it was run: as §1

[30] = biological target: T30, NEK2 (Homo sapiens, UniProt P51955)
T30 construct: purchased Ambit (DiscoverX) KINOMEscan; Cerep
How it was run: as §1

[31] = biological target: T31, ITK (Homo sapiens, UniProt Q08881)
T31 construct: purchased Ambit (DiscoverX) KINOMEscan; Cerep
How it was run: as §1

[32] = biological target: T32, SRMS (Homo sapiens, UniProt Q9H3Y6)
T32 construct: purchased Ambit (DiscoverX) KINOMEscan; Cerep
How it was run: as §1

T25 sequence (O96017 whole entry): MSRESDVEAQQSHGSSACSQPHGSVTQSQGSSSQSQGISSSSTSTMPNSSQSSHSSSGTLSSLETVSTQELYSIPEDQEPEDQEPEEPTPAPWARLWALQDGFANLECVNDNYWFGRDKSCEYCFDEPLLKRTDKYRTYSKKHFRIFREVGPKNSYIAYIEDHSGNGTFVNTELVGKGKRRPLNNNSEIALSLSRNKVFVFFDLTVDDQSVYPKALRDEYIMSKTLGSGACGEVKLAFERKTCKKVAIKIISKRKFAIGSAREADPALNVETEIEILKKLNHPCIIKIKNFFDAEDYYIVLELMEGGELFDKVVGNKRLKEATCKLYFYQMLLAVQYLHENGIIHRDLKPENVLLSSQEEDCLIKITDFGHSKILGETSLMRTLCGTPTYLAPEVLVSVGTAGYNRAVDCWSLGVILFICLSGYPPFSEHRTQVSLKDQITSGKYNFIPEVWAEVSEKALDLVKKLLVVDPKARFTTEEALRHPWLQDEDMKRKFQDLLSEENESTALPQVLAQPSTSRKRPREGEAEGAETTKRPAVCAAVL
T23 sequence (Q9BRS2 whole entry): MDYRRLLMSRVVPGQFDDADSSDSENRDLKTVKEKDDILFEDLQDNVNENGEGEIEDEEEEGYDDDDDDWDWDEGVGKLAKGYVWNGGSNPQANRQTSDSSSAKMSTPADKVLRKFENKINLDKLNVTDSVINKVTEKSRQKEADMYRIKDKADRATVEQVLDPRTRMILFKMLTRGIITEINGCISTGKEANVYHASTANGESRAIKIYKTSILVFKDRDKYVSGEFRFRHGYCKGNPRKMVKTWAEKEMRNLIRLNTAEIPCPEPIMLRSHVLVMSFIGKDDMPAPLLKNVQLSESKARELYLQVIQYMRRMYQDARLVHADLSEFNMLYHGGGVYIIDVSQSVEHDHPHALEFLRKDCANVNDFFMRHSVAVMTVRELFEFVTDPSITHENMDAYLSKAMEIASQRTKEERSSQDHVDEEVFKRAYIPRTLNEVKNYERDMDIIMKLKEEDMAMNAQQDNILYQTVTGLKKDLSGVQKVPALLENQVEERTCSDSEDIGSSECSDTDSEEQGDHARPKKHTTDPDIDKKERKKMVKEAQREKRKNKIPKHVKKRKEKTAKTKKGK
T15 sequence (Q16816 whole entry): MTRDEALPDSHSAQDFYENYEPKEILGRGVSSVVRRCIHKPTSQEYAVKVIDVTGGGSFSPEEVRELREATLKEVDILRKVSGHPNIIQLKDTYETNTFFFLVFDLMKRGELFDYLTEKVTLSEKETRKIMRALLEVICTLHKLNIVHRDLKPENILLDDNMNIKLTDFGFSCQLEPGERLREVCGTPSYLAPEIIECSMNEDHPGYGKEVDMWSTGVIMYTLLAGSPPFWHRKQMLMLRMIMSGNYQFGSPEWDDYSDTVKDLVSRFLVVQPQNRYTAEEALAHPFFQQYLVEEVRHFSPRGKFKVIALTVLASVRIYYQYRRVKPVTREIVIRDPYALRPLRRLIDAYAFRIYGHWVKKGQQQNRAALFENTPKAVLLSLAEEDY
T7 sequence (Q15349 59-318 limits assumed): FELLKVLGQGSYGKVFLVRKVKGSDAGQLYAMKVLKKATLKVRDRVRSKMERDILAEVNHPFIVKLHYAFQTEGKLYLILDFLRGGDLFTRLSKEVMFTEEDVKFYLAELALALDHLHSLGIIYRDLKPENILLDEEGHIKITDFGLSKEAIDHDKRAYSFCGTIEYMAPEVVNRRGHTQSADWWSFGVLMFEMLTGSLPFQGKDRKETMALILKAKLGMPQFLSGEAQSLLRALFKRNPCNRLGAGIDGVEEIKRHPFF
T29 sequence (P45985 whole entry): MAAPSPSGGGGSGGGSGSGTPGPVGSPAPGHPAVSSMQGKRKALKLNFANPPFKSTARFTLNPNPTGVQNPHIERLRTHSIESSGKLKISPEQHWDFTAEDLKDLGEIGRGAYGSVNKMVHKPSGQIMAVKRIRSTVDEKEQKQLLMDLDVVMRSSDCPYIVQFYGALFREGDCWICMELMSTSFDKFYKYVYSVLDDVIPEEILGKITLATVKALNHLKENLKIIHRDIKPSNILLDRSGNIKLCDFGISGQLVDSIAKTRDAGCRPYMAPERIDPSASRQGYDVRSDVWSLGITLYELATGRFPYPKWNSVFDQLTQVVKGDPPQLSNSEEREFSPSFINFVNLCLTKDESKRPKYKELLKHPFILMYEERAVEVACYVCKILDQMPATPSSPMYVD
T3 sequence (P11362 22-822): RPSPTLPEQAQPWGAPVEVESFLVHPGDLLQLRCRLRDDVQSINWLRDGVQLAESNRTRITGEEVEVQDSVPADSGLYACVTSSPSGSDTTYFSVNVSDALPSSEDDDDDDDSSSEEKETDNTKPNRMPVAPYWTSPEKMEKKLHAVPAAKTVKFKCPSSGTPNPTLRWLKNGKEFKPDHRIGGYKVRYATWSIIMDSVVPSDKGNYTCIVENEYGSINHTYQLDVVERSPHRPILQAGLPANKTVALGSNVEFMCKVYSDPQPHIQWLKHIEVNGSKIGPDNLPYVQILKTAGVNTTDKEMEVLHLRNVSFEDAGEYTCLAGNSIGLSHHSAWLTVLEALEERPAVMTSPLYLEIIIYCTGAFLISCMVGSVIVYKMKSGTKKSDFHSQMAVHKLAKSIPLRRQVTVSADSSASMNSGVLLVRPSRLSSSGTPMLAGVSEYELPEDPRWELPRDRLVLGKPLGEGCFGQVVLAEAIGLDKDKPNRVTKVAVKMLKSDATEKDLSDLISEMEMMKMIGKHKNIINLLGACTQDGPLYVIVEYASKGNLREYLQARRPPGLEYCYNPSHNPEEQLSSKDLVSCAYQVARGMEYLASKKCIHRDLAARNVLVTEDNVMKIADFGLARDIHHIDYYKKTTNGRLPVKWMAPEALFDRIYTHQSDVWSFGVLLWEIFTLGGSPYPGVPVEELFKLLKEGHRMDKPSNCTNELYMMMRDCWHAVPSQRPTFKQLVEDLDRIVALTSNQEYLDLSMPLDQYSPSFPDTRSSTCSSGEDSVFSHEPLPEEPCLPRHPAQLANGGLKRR
T24 sequence (Q9UQB9 whole entry): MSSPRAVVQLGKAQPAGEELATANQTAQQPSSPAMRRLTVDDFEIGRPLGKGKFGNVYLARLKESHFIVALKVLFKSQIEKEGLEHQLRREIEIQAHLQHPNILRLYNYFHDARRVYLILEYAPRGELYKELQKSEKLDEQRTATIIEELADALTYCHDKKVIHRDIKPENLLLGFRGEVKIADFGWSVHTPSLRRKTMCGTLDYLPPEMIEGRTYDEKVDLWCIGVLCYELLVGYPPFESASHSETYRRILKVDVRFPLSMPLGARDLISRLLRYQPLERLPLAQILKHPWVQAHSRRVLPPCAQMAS
T1 sequence (Q9NSY1 whole entry): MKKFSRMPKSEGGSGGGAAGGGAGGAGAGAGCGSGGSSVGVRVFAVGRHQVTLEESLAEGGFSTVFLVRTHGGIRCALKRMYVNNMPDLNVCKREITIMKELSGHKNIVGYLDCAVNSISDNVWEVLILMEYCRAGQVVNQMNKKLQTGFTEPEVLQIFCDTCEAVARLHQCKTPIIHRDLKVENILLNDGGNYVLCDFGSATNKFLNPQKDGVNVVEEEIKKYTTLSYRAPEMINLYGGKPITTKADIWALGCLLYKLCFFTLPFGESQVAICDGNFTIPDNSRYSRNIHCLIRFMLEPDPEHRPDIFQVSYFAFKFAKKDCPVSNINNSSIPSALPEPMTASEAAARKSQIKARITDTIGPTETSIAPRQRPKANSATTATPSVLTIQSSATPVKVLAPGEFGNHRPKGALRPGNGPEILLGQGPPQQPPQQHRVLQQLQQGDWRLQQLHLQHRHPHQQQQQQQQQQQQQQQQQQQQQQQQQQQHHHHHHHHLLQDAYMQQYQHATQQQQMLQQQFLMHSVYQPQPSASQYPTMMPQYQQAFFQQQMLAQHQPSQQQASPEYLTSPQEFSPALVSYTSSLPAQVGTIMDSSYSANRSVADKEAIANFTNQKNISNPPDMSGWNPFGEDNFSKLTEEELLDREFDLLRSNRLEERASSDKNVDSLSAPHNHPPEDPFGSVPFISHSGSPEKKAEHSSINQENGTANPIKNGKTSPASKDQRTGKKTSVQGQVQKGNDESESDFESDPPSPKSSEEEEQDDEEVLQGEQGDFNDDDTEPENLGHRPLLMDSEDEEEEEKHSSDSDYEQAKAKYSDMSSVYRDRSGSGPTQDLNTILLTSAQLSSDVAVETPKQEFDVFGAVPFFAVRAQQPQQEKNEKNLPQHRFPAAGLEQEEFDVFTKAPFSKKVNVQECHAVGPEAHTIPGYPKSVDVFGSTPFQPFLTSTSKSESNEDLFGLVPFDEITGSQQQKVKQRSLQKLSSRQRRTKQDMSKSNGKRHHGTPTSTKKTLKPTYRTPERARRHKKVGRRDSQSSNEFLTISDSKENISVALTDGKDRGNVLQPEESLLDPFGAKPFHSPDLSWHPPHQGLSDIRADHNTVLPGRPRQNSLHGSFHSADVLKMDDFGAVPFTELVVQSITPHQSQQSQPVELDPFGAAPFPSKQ
T8 sequence (P32298 whole entry): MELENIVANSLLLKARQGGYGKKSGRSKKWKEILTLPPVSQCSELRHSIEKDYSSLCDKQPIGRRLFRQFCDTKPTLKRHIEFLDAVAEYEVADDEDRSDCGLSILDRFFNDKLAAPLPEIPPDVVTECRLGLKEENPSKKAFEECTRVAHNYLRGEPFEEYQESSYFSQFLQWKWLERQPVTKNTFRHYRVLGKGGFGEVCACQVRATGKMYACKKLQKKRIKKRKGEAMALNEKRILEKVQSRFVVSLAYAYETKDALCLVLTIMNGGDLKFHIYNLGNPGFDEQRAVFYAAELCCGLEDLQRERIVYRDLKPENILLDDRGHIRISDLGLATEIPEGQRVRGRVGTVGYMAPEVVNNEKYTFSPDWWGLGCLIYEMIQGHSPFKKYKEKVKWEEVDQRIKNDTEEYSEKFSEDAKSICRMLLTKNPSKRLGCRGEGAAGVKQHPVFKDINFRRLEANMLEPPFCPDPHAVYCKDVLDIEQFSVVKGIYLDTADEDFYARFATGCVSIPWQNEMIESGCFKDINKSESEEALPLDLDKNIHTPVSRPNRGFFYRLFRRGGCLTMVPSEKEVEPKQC

CCCCN1CCN(C(=N)c2cccc(NC(=O)Nc3ccc(S(=O)(=O)NCc4ccc(S(N)(=O)=O)cc4)cc3)c2)CC1 [SC81458, 4-(3-(3-((4-butylpiperazin-1-yl)(imino)methyl)phenyl)ureido)-N-(4-sulfamoylbenzyl) benzenesulfonamide]
remaining binding at 10 µM [1]: 85% | remaining binding at 10 µM [2]: 85% | remaining binding at 10 µM [3]: 100% | remaining binding at 10 µM [4]: 100% | remaining binding at 10 µM [5]: 100% | remaining binding at 10 µM [6]: 100% | remaining binding at 10 µM [7]: 100% | remaining binding at 10 µM [8]: 92% | remaining binding at 10 µM [9]: 100% | remaining binding at 10 µM [10]: 87% | remaining binding at 10 µM [11]: 91% | remaining binding at 10 µM [12]: 87% | remaining binding at 10 µM [13]: 76% | remaining binding at 10 µM [14]: 100% | remaining binding at 10 µM [15]: 80% | remaining binding at 10 µM [16]: 100% | remaining binding at 10 µM [17]: 85% | remaining binding at 10 µM [18]: 84% | remaining binding at 10 µM [19]: 100% | remaining binding at 10 µM [20]: 100% | remaining binding at 10 µM [21]: 100% | remaining binding at 10 µM [22]: 73% | remaining binding at 10 µM [23]: 75% | remaining binding at 10 µM [24]: 73% | remaining binding at 10 µM [25]: 100% | remaining binding at 10 µM [26]: 95% | remaining binding at 10 µM [27]: 100% | remaining binding at 10 µM [28]: 68% | remaining binding at 10 µM [29]: 100% | remaining binding at 10 µM [30]: 96% | remaining binding at 10 µM [31]: 86% | remaining binding at 10 µM [32]: 79%
